What follows are compounds tested against T1, human IBAT (Homo sapiens, UniProt Q12908) (assay: In vitro assay using Cos 7 cells, transiently expressed human IBAT). Settings: [3H]-taurocholate 8 μM uptake, 37° C., 60 minutes.
T1 sequence (Q12908 1-348): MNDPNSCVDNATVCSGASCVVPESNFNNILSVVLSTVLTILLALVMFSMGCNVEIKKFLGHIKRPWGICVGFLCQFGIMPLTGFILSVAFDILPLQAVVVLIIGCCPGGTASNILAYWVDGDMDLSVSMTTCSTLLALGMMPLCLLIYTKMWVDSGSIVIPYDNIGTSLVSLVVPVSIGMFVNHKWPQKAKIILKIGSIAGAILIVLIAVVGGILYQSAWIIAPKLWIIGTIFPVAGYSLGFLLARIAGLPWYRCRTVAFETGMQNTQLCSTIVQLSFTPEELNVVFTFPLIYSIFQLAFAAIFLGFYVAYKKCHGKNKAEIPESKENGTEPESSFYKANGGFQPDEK
Format: cell-based
Procedure: In the present Test Example, an in vitro assay of compounds using Cos 7 cells as to inhibitory activity on transiently expressed human IBAT or rat IBAT transporter was performed according to the method described in Am. J. Physiol., 274, G157-169.
That is, […] cells/well of Cos 7 cells were seeded in a 24-well plate, and after one day, the cells were transfected with 0.3 μg/well of cDNA of human IBAT or rat IBAT using FuGENE6 (supplied from Roche). After culturing for one day after the transfection, the cells were washed once with the assay buffer, i.e., Hanks buffer containing 25 mM glucose and 10 mM HEPES (pH 7.4). The assay buffer was then replaced with the assay buffer containing the test compound. [^3H]-Taurocholate at a final concentration of 8 μM was added thereto and incubated at 37° C. for 60 minutes so that [^3H]-taurocholate was taken into Cos 7 cells by the action of human IBAT or rat IBAT. The cells were washed twice with the assay buffer containing 1 mM taurocholate, and subsequently lysed with 0.2 M NaOH to stop the reaction. The cell lysate was added to 4 mL of liquid scintillation cocktail, which was then thoroughly vortexed. Then the radioactivity was measured using the liquid scintillation counter.
`CCCCC1(CCCC)CS(=O)(=O)c2ccc(N(C)C)cc2C(c2cccc(NC(=S)Nc3ccc(C[n+]4ccc(C(c5ccccc5)c5ccccc5)cc4)cc3)c2)N1` (centres unmarked) [EXAMPLE 5410] gave an IC50 of 100 nM.
In the case of `CCCCC1(CCCC)CS(=O)(=O)c2ccc(N(C)C)cc2C(c2cccc(NC(=S)Nc3ccc(C[n+]4ccc(C(C)(C)O)cc4)cc3)c2)N1` (centres unmarked) [EXAMPLE 5412], the IC50 is reported as 37 nM.
Compound `CCCCC1(CCCC)CS(=O)(=O)c2ccc(N(C)C)cc2C(c2cccc(NC(=S)Nc3ccc(C[n+]4cccc(F)c4)cc3)c2)N1` (centres unmarked) [EXAMPLE 5416] has an IC50 of 77 nM.
`CCCCC1(CCCC)CS(=O)(=O)c2ccc(N(C)C)cc2C(c2cccc(NC(=S)Nc3ccc(C[n+]4cccc(Cl)c4)cc3)c2)N1` (centres unmarked) [EXAMPLE 5418] showed an IC50 of 69 nM.
`CCCCC1(CCCC)CS(=O)(=O)c2ccc(N(C)C)cc2C(c2cccc(NC(=S)Nc3ccc(C[n+]4ccc(C5CCOCC5)cc4)cc3)c2)N1` (centres unmarked) [EXAMPLE 5419] showed an IC50 of 39 nM.
Compound `CCCCC1(CCCC)CS(=O)(=O)c2ccc(N(C)C)cc2C(c2cccc(NC(=S)Nc3ccc(C[n+]4ccccc4CCOC(C)C)cc3)c2)N1` (centres unmarked) [EXAMPLE 5420] has an IC50 of 68 nM.
`CCCCC1(CCCC)CS(=O)(=O)c2ccc(N(C)C)cc2C(c2cccc(NC(=S)Nc3ccc(C[N+]45CCC(CC4)CC5)cc3C)c2)N1` (centres unmarked) [EXAMPLE P317] showed an IC50 of 49 nM.
In the case of `CCCCC1(CCCC)CS(=O)(=O)c2ccc(N(C)C)cc2C(c2cccc(NC(=S)Nc3ccc(C[N+]45CCC(CC4)CC5)c(F)c3)c2)N1` (centres unmarked) [EXAMPLE P319], the IC50 is reported as 42 nM.
In the case of `CCCCC1(CCCC)CS(=O)(=O)c2ccc(N(C)C)cc2C(c2cccc(NC(=S)Nc3ccc(C[N+]45CCC(CC4)CC5)cc3Cl)c2)N1` (centres unmarked) [EXAMPLE P320], the IC50 is reported as 41 nM.
`CCCCC1(CCCC)CS(=O)(=O)c2ccc(N(C)C)cc2C(c2cccc(NC(=S)Nc3ccc(C[N+]45CCC(CC4)CC5)c(Cl)c3)c2)N1` (centres unmarked) [EXAMPLE P321] was tested, and the IC50 was 45 nM.
With `CCCCC1(CCCC)CS(=O)(=O)c2ccc(N(C)C)cc2C(c2cccc(NC(=S)Nc3ccc(C[N+]45CCC(CC4)CC5)cc3Br)c2)N1` (centres unmarked) [EXAMPLE P322] the IC50 was 62 nM.
Compound `CCCCC1(CCCC)CS(=O)(=O)c2ccc(N(C)C)cc2C(c2cccc(NC(=S)Nc3ccc(C[N+]45CCC(CC4)CC5)c(Br)c3)c2)N1` (centres unmarked) [EXAMPLE P323] has an IC50 of 32 nM.
For `CCCCC1(CCCC)CS(=O)(=O)c2ccc(N(C)C)cc2C(c2cccc(NC(=S)Nc3ccc(C[N+]45CCC(CC4)CC5)c(C(F)(F)F)c3)c2)N1` (centres unmarked) [EXAMPLE P324], the IC50 was 37 nM.
`CCCCC1(CCCC)CS(=O)(=O)c2ccc(N(C)C)cc2C(c2cccc(NC(=S)Nc3c(C)cc(C[N+]45CCC(CC4)CC5)cc3C)c2)N1` (centres unmarked) [EXAMPLE P326] was tested, and the IC50 was 100 nM.
In the case of `CCCCC1(CCCC)CS(=O)(=O)c2ccc(N(C)C)cc2C(c2cccc(NC(=S)Nc3ccc(C[N+](C)(C)Cc4ccccc4)cc3C)c2)N1` (centres unmarked) [EXAMPLE P328], the IC50 is reported as 38 nM.
For `CCCCC1(CCCC)CS(=O)(=O)c2ccc(N(C)C)cc2C(c2cccc(NC(=S)Nc3ccc(C[N+](C)(C)Cc4ccccc4)cc3F)c2)N1` (centres unmarked) [EXAMPLE P330], the IC50 was 32 nM.
For `CCCCC1(CCCC)CS(=O)(=O)c2ccc(N(C)C)cc2C(c2cccc(NC(=S)Nc3ccc(C[N+](C)(C)Cc4ccccc4)c(F)c3)c2)N1` (centres unmarked) [EXAMPLE P331], the IC50 was 35 nM.
`CCCCC1(CCCC)CS(=O)(=O)c2ccc(N(C)C)cc2C(c2cccc(NC(=S)Nc3ccc(C[N+](C)(C)Cc4ccccc4)cc3Cl)c2)N1` (centres unmarked) [EXAMPLE P332] was tested, and the IC50 was 46 nM.
`CCCCC1(CCCC)CS(=O)(=O)c2ccc(N(C)C)cc2C(c2cccc(NC(=S)Nc3ccc(C[N+](C)(C)Cc4ccccc4)c(Cl)c3)c2)N1` (centres unmarked) [EXAMPLE P333] showed an IC50 of 44 nM.
`CCCCC1(CCCC)CS(=O)(=O)c2ccc(N(C)C)cc2C(c2cccc(NC(=S)Nc3ccc(C[N+](C)(C)Cc4ccccc4)cc3Br)c2)N1` (centres unmarked) [EXAMPLE P334] gave an IC50 of 37 nM.
`CCCCC1(CCCC)CS(=O)(=O)c2ccc(N(C)C)cc2C(c2cccc(NC(=S)Nc3ccc(C[N+](C)(C)Cc4ccccc4)c(Br)c3)c2)N1` (centres unmarked) [EXAMPLE P335] showed an IC50 of 68 nM.
`CCCCC1(CCCC)CS(=O)(=O)c2ccc(N(C)C)cc2C(c2cccc(NC(=S)Nc3c(C)cc(C[N+](C)(C)Cc4ccccc4)cc3C)c2)N1` (centres unmarked) [EXAMPLE P338] showed an IC50 of 47 nM.
With `CCCCC1(CCCC)CS(=O)(=O)c2ccc(N(C)C)cc2C(c2cccc(NC(=S)Nc3ccc(C[N+]45CCC(c6ccccc6)(CC4)CC5)c([N+](=O)[O-])c3)c2)N1` (centres unmarked) [EXAMPLE P349] the IC50 was 41 nM.
`CCCCC1(CCCC)CS(=O)(=O)c2ccc(N(C)C)cc2C(c2cccc(NC(=S)Nc3c(C)cc(C[N+]45CCC(c6ccccc6)(CC4)CC5)cc3C)c2)N1` (centres unmarked) [EXAMPLE P350] was tested, and the IC50 was 40 nM.
With `CCCCC1(CCCC)CS(=O)(=O)c2ccc(N(C)C)cc2C(c2cccc(NC(=S)Nc3ccc(C[n+]4ccc(C(C)(C)C)cc4)cc3C)c2)N1` (centres unmarked) [EXAMPLE P364] the IC50 was 48 nM.
Compound `CCCCC1(CCCC)CS(=O)(=O)c2ccc(N(C)C)cc2C(c2cccc(NC(=S)Nc3ccc(C[n+]4ccc(C(C)(C)C)cc4)c(F)c3)c2)N1` (centres unmarked) [EXAMPLE P367] has an IC50 of 23 nM.
Work on `CCCCC1(CCCC)CS(=O)(=O)c2ccc(N(C)C)cc2C(c2cccc(NC(=S)Nc3ccc(C[n+]4ccc(C(C)(C)C)cc4)cc3Cl)c2)N1` (centres unmarked) [EXAMPLE P368] yielded an IC50 of 29 nM.
Compound `CCCCC1(CCCC)CS(=O)(=O)c2ccc(N(C)C)cc2C(c2cccc(NC(=S)Nc3ccc(C[n+]4ccc(C(C)(C)C)cc4)c(Cl)c3)c2)N1` (centres unmarked) [EXAMPLE P369] has an IC50 of 34 nM.
In the case of `CCCCC1(CCCC)CS(=O)(=O)c2ccc(N(C)C)cc2C(c2cccc(NC(=S)Nc3ccc(C[n+]4ccc(C(C)(C)C)cc4)cc3Br)c2)N1` (centres unmarked) [EXAMPLE P370], the IC50 is reported as 30 nM.
`CCCCC1(CCCC)CS(=O)(=O)c2ccc(N(C)C)cc2C(c2cccc(NC(=S)Nc3ccc(C[n+]4ccc(C(C)(C)C)cc4)c(Br)c3)c2)N1` (centres unmarked) [EXAMPLE P371] was tested, and the IC50 was 28 nM.
`CCCCC1(CCCC)CS(=O)(=O)c2ccc(N(C)C)cc2C(c2cccc(NC(=S)Nc3ccc(C[n+]4ccc(C(C)(C)C)cc4)c(C(F)(F)F)c3)c2)N1` (centres unmarked) [EXAMPLE P372] showed an IC50 of 35 nM.
In the case of `CCCCC1(CCCC)CS(=O)(=O)c2ccc(N(C)C)cc2C(c2cccc(NC(=S)Nc3ccc(C[n+]4ccc(C(C)(C)C)cc4)c([N+](=O)[O-])c3)c2)N1` (centres unmarked) [EXAMPLE P373], the IC50 is reported as 97 nM.
Compound `CCCCC1(CCCC)CS(=O)(=O)c2ccc(N(C)C)cc2C(c2cccc(NC(=S)Nc3c(C)cc(C[n+]4ccc(C(C)(C)C)cc4)cc3C)c2)N1` (centres unmarked) [EXAMPLE P374] has an IC50 of 33 nM.
`CCCCC1(CCCC)CS(=O)(=O)c2ccc(N(C)C)cc2C(c2cccc(NC(=S)Nc3ccc(C[n+]4ccc(-c5ccccc5)cc4)cc3C)c2)N1` (centres unmarked) [EXAMPLE P376] was tested, and the IC50 was 37 nM.
`CCCCC1(CCCC)CS(=O)(=O)c2ccc(N(C)C)cc2C(c2cccc(NC(=S)Nc3ccc(C[n+]4ccc(-c5ccccc5)cc4)cc3F)c2)N1` (centres unmarked) [EXAMPLE P378] was tested, and the IC50 was 34 nM.
For `CCCCC1(CCCC)CS(=O)(=O)c2ccc(N(C)C)cc2C(c2cccc(NC(=S)Nc3ccc(C[n+]4ccc(-c5ccccc5)cc4)c(F)c3)c2)N1` (centres unmarked) [EXAMPLE P379], the IC50 was 26 nM.
For `CCCCC1(CCCC)CS(=O)(=O)c2ccc(N(C)C)cc2C(c2cccc(NC(=S)Nc3ccc(C[n+]4ccc(-c5ccccc5)cc4)cc3Cl)c2)N1` (centres unmarked) [EXAMPLE P380], the IC50 was 18 nM.
In the case of `CCCCC1(CCCC)CS(=O)(=O)c2ccc(N(C)C)cc2C(c2cccc(NC(=S)Nc3ccc(C[n+]4ccc(-c5ccccc5)cc4)c(Cl)c3)c2)N1` (centres unmarked) [EXAMPLE P381], the IC50 is reported as 28 nM.
`CCCCC1(CCCC)CS(=O)(=O)c2ccc(N(C)C)cc2C(c2cccc(NC(=S)Nc3ccc(C[n+]4ccc(-c5ccccc5)cc4)cc3Br)c2)N1` (centres unmarked) [EXAMPLE P382] gave an IC50 of 28 nM.
Compound `CCCCC1(CCCC)CS(=O)(=O)c2ccc(N(C)C)cc2C(c2cccc(NC(=S)Nc3ccc(C[n+]4ccc(-c5ccccc5)cc4)c(Br)c3)c2)N1` (centres unmarked) [EXAMPLE P383] has an IC50 of 26 nM.
`CCCCC1(CCCC)CS(=O)(=O)c2ccc(N(C)C)cc2C(c2cccc(NC(=S)Nc3ccc(C[n+]4ccc(-c5ccccc5)cc4)c(C(F)(F)F)c3)c2)N1` (centres unmarked) [EXAMPLE P384] was tested, and the IC50 was 32 nM.
`CCCCC1(CCCC)CS(=O)(=O)c2ccc(N(C)C)cc2C(c2cccc(NC(=S)Nc3ccc(C[n+]4ccc(-c5ccccc5)cc4)c([N+](=O)[O-])c3)c2)N1` (centres unmarked) [EXAMPLE P385] was tested, and the IC50 was 56 nM.
`CCCCC1(CCCC)CS(=O)(=O)c2ccc(N(C)C)cc2C(c2cccc(NC(=S)Nc3c(C)cc(C[n+]4ccc(-c5ccccc5)cc4)cc3C)c2)N1` (centres unmarked) [EXAMPLE P386] showed an IC50 of 60 nM.
`CCCCC1(CCCC)CS(=O)(=O)c2ccc(N(C)C)cc2C(c2cccc(NC(=S)Nc3ccc(C[N+]45CCC(c6ccccc6)(CC4)CC5)cc3F)c2)N1` (centres unmarked) [Example P316, 1-(4-{3-[3-(3,3-dibutyl-7-dimethylamino-1,1-dioxo-2,3,4,5-tetrahydro-1,4-benzothiazepine-5-yl)phenyl]thioureido}-3-fluorobenzyl)-4-phenyl-1-azoniabicyclo[2.2.2]octane bromide] was tested, and the IC50 was 28 nM.

— patent US20120015925A1, “NOVEL BENZOTHIAZEPINE AND BENZOTHIEPINE COMPOUNDS” (ASAHI KASEI PHARMA CORPORATION, priority 2004, published 2012)
